Assay results reported in patent US10689377B2 (Mirati Therapeutics, Inc., priority 2017, dated 2020).

Biological target: KRas G12C (Homo sapiens, UniProt P01116, G12C)
Experiment: Cellular inhibition of KRas G12C measured by Phospho-ERK in NCI-H358 cells
Type: cell-based
Conditions: pERK(Thr202/Tyr204) normalized with GAPDH, NCI-H358 cells, 3 hours; read-out: IC50
In short: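 NCI-H358 cells were allowed to attach for 8-12 hours, then exposed to compounds for 3 hours at 0.5% DMSO final. After formaldehyde fixation and methanol permeabilization, phospho-ERK (Thr202/Tyr204) was detected by in-cell immunofluorescence and normalized to GAPDH; IC50 came from a 4-parameter fit of percent-of-DMSO values.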

Chain of KRas G12C (P01116 1-188 isoform P01116-2 G12C): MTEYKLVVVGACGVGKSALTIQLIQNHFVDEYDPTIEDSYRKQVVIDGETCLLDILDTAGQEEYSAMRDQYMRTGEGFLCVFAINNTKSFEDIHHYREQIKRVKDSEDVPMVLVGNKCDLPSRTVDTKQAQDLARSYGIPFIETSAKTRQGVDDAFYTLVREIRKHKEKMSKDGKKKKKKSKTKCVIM

| IC50 | SMILES |
| --- | --- |
| 0.1 to 1000 nM | C=CC(=O)N1CCN(c2nc(OC[C@@H]3CCCN3C)nc3c2CCN(c2cnccc2C2CC2)C3)C[C@@H]1CC#N [Example 352, 2-[(2S)-4-[7-(4-cyclopropyl-3-pyridyl)-2-[[(2S)-1-methylpyrrolidin-2-yl]methoxy]-6,8-dihydro-5H-pyrido[3,4-d]pyrimidin-4-yl]-1-prop-2-enoyl-piperazin-2-yl]acetonitrile] |
| > 1000 nM | C=CC(=O)N1CCN(c2nc(OC[C@@H]3CCCN3C)nc3c2CCN(c2cccc4ccccc24)C3)[C@H](C)C1 [Example 353, 1-[(3R)-3-methyl-4-[2-[[(2S)-1-methylpyrrolidin-2-yl]methoxy]-7-(1-naphthyl)-6,8-dihydro-5H-pyrido[3,4-d]pyrimidin-4-yl]piperazin-1-yl]prop-2-en-1-one] |
| > 1000 nM | C=CC(=O)N1CCN(c2nc(OC[C@@H]3CCCN3C)nc3c2CCN(c2cccc4ccccc24)C3)C(C)(C)C1 [Example 354, 1-[3,3-dimethyl-4-[2-[[(2S)-1-methylpyrrolidin-2-yl]methoxy]-7-(1-naphthyl)-6,8-dihydro-5H-pyrido[3,4-d]pyrimidin-4-yl]piperazin-1-yl]prop-2-en-1-one] |
| > 1000 nM | C=CC(=O)N1CCN(c2nc(OC[C@@H]3C[C@@H](F)CN3C)nc3c2CCN(c2cc(OC)cc4ccccc24)C3)CC1 [Example 355, 1-[4-[2-[[(2S,4R)-4-fluoro-1-methyl-pyrrolidin-2-yl]methoxy]-7-(3-methoxy-1-naphthyl)-6,8-dihydro-5H-pyrido[3,4-d]pyrimidin-4-yl]piperazin-1-yl]prop-2-en-1-one] |
| > 1000 nM | C=CC(=O)N1CCN(c2nc(OC[C@@H]3C[C@@H](OC)CN3C)nc3c2CCN(c2cc(OC)cc4ccccc24)C3)CC1 [Example 356, 1-[4-[2-[[(2S,4R)-4-methoxy-1-methyl-pyrrolidin-2-yl]methoxy]-7-(3-methoxy-1-naphthyl)-6,8-dihydro-5H-pyrido[3,4-d]pyrimidin-4-yl]piperazin-1-yl]prop-2-en-1-one] |
| 0.1 to 1000 nM | C=CC(=O)N1CCN(c2nc(OC[C@@H]3C[C@@H](F)CN3C)nc3c2CCN(c2cc(O)cc4ccccc24)C3)CC1 [Example 357, 1-[4-[2-[[(2S,4R)-4-fluoro-1-methyl-pyrrolidin-2-yl]methoxy]-7-(3-hydroxy-1-naphthyl)-6,8-dihydro-5H-pyrido[3,4-d]pyrimidin-4-yl]piperazin-1-yl]prop-2-en-1-one] |
| 0.1 to 1000 nM | C#CC[C@H]1CN(c2nc(OC[C@@H]3CCCN3C)nc3c2CCN(c2cccc4ccccc24)C3)CCN1C(=O)C=C [Example 358, 1-[(2S)-4-[2-[[(2S)-1-methylpyrrolidin-2-yl]methoxy]-7-(1-naphthyl)-6,8-dihydro-5H-pyrido[3,4-d]pyrimidin-4-yl]-2-prop-2-ynyl-piperazin-1-yl]prop-2-en-1-one] |
| 0.1 to 1000 nM | C=CC(=O)N1CCN(c2nc(OC[C@@H]3CCCN3C)nc3c2CCN(c2cccc4cccc(CC)c24)C3)C[C@@H]1CC#N [Example 360, 2-[(2S)-4-[7-(8-ethyl-1-naphthyl)-2-[[(2S)-1-methylpyrrolidin-2-yl]methoxy]-6,8-dihydro-5H-pyrido[3,4-d]pyrimidin-4-yl]-1-prop-2-enoyl-piperazin-2-yl]acetonitrile] |
| 0.1 to 1000 nM | C=CC(=O)N1CCN(c2nc(OC[C@@H]3CCN(C)C3)nc3c2CCN(c2cccc4cccc(Cl)c24)C3)C[C@@H]1CC#N [Example 361, 2-[(2S)-4-[7-(8-chloro-1-naphthyl)-2-[[(3R)-1-methylpyrrolidin-3-yl]methoxy]-6,8-dihydro-5H-pyrido[3,4-d]pyrimidin-4-yl]-1-prop-2-enoyl-piperazin-2-yl]acetonitrile] |
| 0.1 to 1000 nM | C=CC(=O)N1CCN(c2nc(OCCN3CCCCC3)nc3c2CCN(c2cccc4cccc(Cl)c24)C3)C[C@@H]1CC#N [Example 362, 2-[(2S)-4-[7-(8-chloro-1-naphthyl)-2-[2-(1-piperidyl)ethoxy]-6,8-dihydro-5H-pyrido[3,4-d]pyrimidin-4-yl]-1-prop-2-enoyl-piperazin-2-yl]acetonitrile] |
| 0.1 to 1000 nM | C=CC(=O)N1CCN(c2nc(OC[C@H]3CN(C)CCO3)nc3c2CCN(c2cccc4cccc(Cl)c24)C3)C[C@@H]1CC#N [Example 363, 2-[(2S)-4-[7-(8-chloro-1-naphthyl)-2-[[(2R)-4-methylmorpholin-2-yl]methoxy]-6,8-dihydro-5H-pyrido[3,4-d]pyrimidin-4-yl]-1-prop-2-enoyl-piperazin-2-yl]acetonitrile] |
| 0.1 to 1000 nM | C=CC(=O)N1CCN(c2nc(OC[C@@H]3CCCN3C)nc3c2CCN(c2cccc(C)c2C(F)(F)F)C3)C[C@@H]1CC#N [Example 364, 2-[(2S)-4-[2-[[(2S)-1-methylpyrrolidin-2-yl]methoxy]-7-[3-methyl-2-(trifluoromethyl)phenyl]-6,8-dihydro-5H-pyrido[3,4-d]pyrimidin-4-yl]-1-prop-2-enoyl-piperazin-2-yl]acetonitrile] |
| 0.1 to 1000 nM | C=CC(=O)N1CCN(c2nc(OCCCN3C[C@@H]4C[C@H]3CO4)nc3c2CCN(c2cccc4cccc(Cl)c24)C3)C[C@@H]1CC#N [Example 365, 2-[(2S)-4-[7-(8-chloro-1-naphthyl)-2-[3-[(1S,4S)-2-oxa-5-azabicyclo[2.2.1]heptan-5-yl]propoxy]-6,8-dihydro-5H-pyrido[3,4-d]pyrimidin-4-yl]-1-prop-2-enoyl-piperazin-2-yl]acetonitrile] |
| 0.1 to 1000 nM | C=CC(=O)N1CCN(c2nc(OC[C@@H]3CC(F)(F)CN3C)nc3c2CCN(c2cccc4cccc(Cl)c24)C3)C[C@@H]1CC#N [Example 366, 2-[(2S)-4-[7-(8-chloro-1-naphthyl)-2-[[(2S)-4,4-difluoro-1-methyl-pyrrolidin-2-yl]methoxy]-6,8-dihydro-5H-pyrido[3,4-d]pyrimidin-4-yl]-1-prop-2-enoyl-piperazin-2-yl]acetonitrile] |
| > 1000 nM | C=CC(=O)N1C[C@H](C)N(c2nc(OC[C@@H]3CCCN3C)nc3c2CCN(c2cccc4ccccc24)C3)C[C@@H]1CC#N [Example 368, 2-((2S,5S)-1-acryloyl-5-methyl-4-(2-(((S)-1-methylpyrrolidin-2-yl)methoxy)-7-(naphthalen-1-yl)-5,6,7,8-tetrahydropyrido[3,4-d]pyrimidin-4-yl)piperazin-2-yl)acetonitrile] |
| 0.1 to 1000 nM | C=CC(=O)N1CCN(c2nc(OCCCN3C[C@@H]4C[C@H]3CO4)nc3c2CCN(c2cccc4cccc(C)c24)C3)C[C@@H]1CC#N [Example 369, 2-((S)-4-(2-(3-((1S,4S)-2-oxa-5-azabicyclo[2.2.1]heptan-5-yl)propoxy)-7-(8-methylnaphthalen-1-yl)-5,6,7,8-tetrahydropyrido[3,4-d]pyrimidin-4-yl)-1-acryloylpiperazin-2-yl)acetonitrile] |
| 0.1 to 1000 nM | C=CC(=O)N1CCN(c2nc(OCCCN3CCOCC3)nc3c2CCN(c2cccc4cccc(C)c24)C3)C[C@@H]1CC#N [Example 370, (S)-2-(1-acryloyl-4-(7-(8-methylnaphthalen-1-yl)-2-(3-morpholinopropoxy)-5,6,7,8-tetrahydropyrido[3,4-d]pyrimidin-4-yl)piperazin-2-yl)acetonitrile] |
| 0.1 to 1000 nM | C=CC(=O)N1CCN(c2nc(OCCC(=O)N(C)C)nc3c2CCN(c2cccc4cccc(C)c24)C3)C[C@@H]1CC#N [Example 371, (S)-3-((4-(4-acryloyl-3-(cyanomethyl)piperazin-1-yl)-7-(8-methylnaphthalen-1-yl)-5,6,7,8-tetrahydropyrido[3,4-d]pyrimidin-2-yl)oxy)-N,N-dimethylpropanamide] |
| > 1000 nM | C=CC(=O)N1CCN(c2nc(OC[C@@H]3CCCN3C)nc3c2CCN(c2ccccc2CC(F)(F)F)C3)CC1CC#N (stereo partly drawn) [Example 374, 2-(1-acryloyl-4-(2-(((S)-1-methylpyrrolidin-2-yl)methoxy)-7-(2-(2,2,2-trifluoroethyl)phenyl)-5,6,7,8-tetrahydropyrido[3,4-d]pyrimidin-4-yl)piperazin-2-yl)acetonitrile] |
| > 1000 nM | C=CC(=O)N1CCN(c2nc(OC[C@@H]3CCCN3C)nc3c2CCN(c2ccncc2C(F)(F)F)C3)CC1CC#N (stereo partly drawn) [Example 375, 2-(1-acryloyl-4-(2-(((S)-1-methylpyrrolidin-2-yl)methoxy)-7-(3-(trifluoromethyl)pyridin-4-yl)-5,6,7,8-tetrahydropyrido[3,4-d]pyrimidin-4-yl)piperazin-2-yl)acetonitrile] |
| 0.1 to 1000 nM | C=CC(=O)N1CCN(c2nc(OC[C@@H]3CCCCN3C)nc3c2CCN(c2cccc4ccccc24)C3)C[C@@H]1CC#N [Example 377, 2-((S)-1-acryloyl-4-(2-(((S)-1-methylpiperidin-2-yl)methoxy)-7-(naphthalen-1-yl)-5,6,7,8-tetrahydropyrido[3,4-d]pyrimidin-4-yl)piperazin-2-yl)acetonitrile] |
| 0.1 to 1000 nM | C=CC(=O)N1C[C@@H](C)N(c2nc(OC[C@@H]3CCCN3C)nc3c2CCN(c2cccc4ccccc24)C3)C[C@@H]1CC#N [Example 378, 2-((2S,5R)-1-acryloyl-5-methyl-4-(2-(((S)-1-methylpyrrolidin-2-yl)methoxy)-7-(naphthalen-1-yl)-5,6,7,8-tetrahydropyrido[3,4-d]pyrimidin-4-yl)piperazin-2-yl)acetonitrile] |
| 0.1 to 1000 nM | C=CC(=O)N1CCN(c2nc(OC[C@@H]3CCCN3C)nc3c2CCN(c2ccccc2C(F)(F)F)C3)C[C@@H]1CC#N [Example 379, 2-((S)-1-acryloyl-4-(2-(((S)-1-methylpyrrolidin-2-yl)methoxy)-7-(2-(trifluoromethyl)phenyl)-5,6,7,8-tetrahydropyrido[3,4-d]pyrimidin-4-yl)piperazin-2-yl)acetonitrile] |

| SMILES | IC50 |
| --- | --- |
| CC#CC(=O)N1CCN(c2nc(OC[C@@H]3CCCN3C)nc3c2CCN(c2cccc4ccccc24)C3)CC1CC#N (stereo partly drawn) [Example 376, 2-(1-(but-2-ynoyl)-4-(2-(((S)-1-methylpyrrolidin-2-yl)methoxy)-7-(naphthalen-1-yl)-5,6,7,8-tetrahydropyrido[3,4-d]pyrimidin-4-yl)piperazin-2-yl)acetonitrile 2,2,2-trifluoroacetate] | 0.1 to 1000 nM |
